This test has as its system HRE-bla ME-180 cells. The test is described as follows: Reporter gene assay (HRE-bla ME-180 HIF reporter, GeneBLAzer). The test is classed as cell-based, human. As to conditions: for EC50: 24 hour normoxia. The essentials: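 A FRET β-lactamase readout of HIF transcription was used. After compound treatment in 0.3% DMSO/media under normoxic conditions, 20 μl of 6× LiveBLAzer-FRET B/G (CCF4-AM) substrate was added. Plates sat 3 hr at room temperature in the dark and were read at 409 Ex/460Em and 409Ex/530Em on a Synergy 2. Inhibition was compared against DMSO vehicle controls, with chetomin as positive control.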

Bridge positions count the residues as written; N and C are the ends. Square brackets hold non-standard residues; d marks the D form. Peptide text beside a SMILES is read from it. S5 = C=CCCC[C@](C)(N)C(=O)O; Nle = CCCC[C@H](N)C(=O)O

One may read the EC50 as the concentration that produces a half-maximal response.

Take `CCCC[C@H](NC(=O)[C@]1(C)CCCC=CCCC[C@](C)(NC(=O)[C@H](CO)NC(=O)[C@H](CC(C)C)NC(=O)[C@@H](NC(=O)[C@H](CCC(=O)O)NC(=O)[C@H](CCC(=O)O)NC(=O)[C@H](CC(=O)O)NC(=O)[C@@H](NC(=O)[C@H](Cc2ccccc2)NC(C)=O)[C@@H](C)CC)C(C)C)C(=O)N[C@@H](CC(C)C)C(=O)N[C@@H](C(C)C)C(=O)N[C@@H]([C@@H](C)CC)C(=O)N1)C(=O)N[C@@H](C)C(=O)N[C@@H](CC(C)C)C(=O)N[C@@H](CC(=O)O)C(=O)N[C@@H](CCCNC(=N)N)C(=O)N[C@H](C(N)=O)[C@@H](C)CC` [SP-50] (Ac-FIDEEVLS[S5]LVI[S5][Nle]ALDRI-NH2; staple 9-13): the “18 h Avg % max inhibition at top conc (HIF Rptr-24 hrs normoxia) (μM)” value (“18 h Avg % max inhibition at top conc” for short) is listed as “++++ (≥50: ++++)” and the 50% effective concentration (EC50) was not above 5 µM.
As to `CCCC[C@H](NC(=O)[C@H](CC(C)C)NC(=O)[C@@H](NC(=O)[C@H](CCC(=O)O)NC(=O)[C@H](CCC(=O)O)NC(=O)[C@H](CC(=O)O)NC(=O)[C@@H](NC(=O)[C@H](Cc1ccccc1)NC(C)=O)[C@@H](C)CC)C(C)C)C(=O)N[C@@]1(C)CCCC=CCCC[C@@](C)(C(=O)N[C@@H](CCCC)C(=O)N[C@@H](C)C(=O)N[C@@H](CC(C)C)C(=O)N[C@@H](CC(=O)O)C(=O)N[C@@H](CCCNC(=N)N)C(=O)N[C@H](C(N)=O)[C@@H](C)CC)NC(=O)[C@H]([C@@H](C)CC)NC(=O)[C@H](C(C)C)NC(=O)[C@H](CO)NC1=O` [SP-51] (Ac-FIDEEVL[Nle][S5]SVI[S5][Nle]ALDRI-NH2; staple 9-13), the “18 h Avg % max inhibition at top conc” value is given as “+++ (≤25 but <50: +++)” and the 50% effective concentration (EC50) fell in the range of 5 to 15 µM.
In the case of `CCCC[C@H](NC(=O)[C@H](CC(C)C)NC(=O)[C@@H](NC(=O)[C@H](CCC(=O)O)NC(=O)[C@H](CCC(=O)O)NC(=O)[C@H](CC(=O)O)NC(=O)[C@@H](NC(=O)[C@H](Cc1ccccc1)NC(C)=O)[C@@H](C)CC)C(C)C)C(=O)N[C@@]1(C)CCCC=CCCC[C@@](C)(C(=O)N[C@@H](CCCC)C(=O)N[C@@H](C)C(=O)N[C@@H](CC(C)C)C(=O)N[C@@H](CC(=O)O)C(=O)N[C@@H](CCCNC(=N)N)C(=O)N[C@H](C(N)=O)[C@@H](C)CC)NC(=O)[C@H]([C@@H](C)CC)NC(=O)[C@H](CO)NC(=O)[C@H](CC(C)C)NC1=O` [SP-52] (Ac-FIDEEVL[Nle][S5]LSI[S5][Nle]ALDRI-NH2; staple 9-13), the “18 h Avg % max inhibition at top conc” value was “++++ (≥50: ++++)” and the 50% effective concentration (EC50) is 15 to 30 µM.
As for `CCCC[C@H](NC(=O)[C@H](CC(C)C)NC(=O)[C@@H](NC(=O)[C@H](CCC(=O)O)NC(=O)[C@H](CCC(=O)O)NC(=O)[C@H](CC(=O)O)NC(=O)[C@@H](NC(=O)[C@H](Cc1ccccc1)NC(C)=O)[C@@H](C)CC)C(C)C)C(=O)N[C@@]1(C)CCCC=CCCC[C@@](C)(C(=O)N[C@@H](CCCC)C(=O)N[C@@H](C)C(=O)N[C@@H](CC(C)C)C(=O)N[C@@H](CC(=O)O)C(=O)N[C@@H](CCCNC(=N)N)C(=O)N[C@H](C(N)=O)[C@@H](C)CC)NC(=O)[C@H](CO)NC(=O)[C@H](C(C)C)NC(=O)[C@H](CC(C)C)NC1=O` [SP-53] (Ac-FIDEEVL[Nle][S5]LVS[S5][Nle]ALDRI-NH2; staple 9-13), the “18 h Avg % max inhibition at top conc” value is “+++ (≤25 but <50: +++)” and the EC50 is 5 to 15 µM.
As for `CCCC[C@H](NC(=O)[C@H](CC(C)C)NC(=O)[C@@H](NC(=O)[C@H](CCC(=O)O)NC(=O)[C@H](CCC(=O)O)NC(=O)[C@H](CC(=O)O)NC(=O)[C@@H](NC(=O)[C@H](Cc1ccccc1)NC(C)=O)[C@@H](C)CC)C(C)C)C(=O)N[C@@]1(C)CCCC=CCCC[C@@](C)(C(=O)N[C@@H](CO)C(=O)N[C@@H](C)C(=O)N[C@@H](CC(C)C)C(=O)N[C@@H](CC(=O)O)C(=O)N[C@@H](CCCNC(=N)N)C(=O)N[C@H](C(N)=O)[C@@H](C)CC)NC(=O)[C@H]([C@@H](C)CC)NC(=O)[C@H](C(C)C)NC(=O)[C@H](CC(C)C)NC1=O` [SP-54] (Ac-FIDEEVL[Nle][S5]LVI[S5]SALDRI-NH2; staple 9-13), the “18 h Avg % max inhibition at top conc” value is reported as “++++ (≥50: ++++)” and the EC50 is not above 5 µM.
Take `CCCC[C@H](NC(=O)[C@H](CC(C)C)NC(=O)[C@@H](NC(=O)[C@H](CCC(=O)O)NC(=O)[C@H](CCC(=O)O)NC(=O)[C@H](CC(=O)O)NC(=O)[C@@H](NC(=O)[C@H](Cc1ccccc1)NC(C)=O)[C@@H](C)CC)C(C)C)C(=O)N[C@@]1(C)CCCC=CCCC[C@@](C)(C(=O)N[C@@H](CCCC)C(=O)N[C@@H](CO)C(=O)N[C@@H](CC(C)C)C(=O)N[C@@H](CC(=O)O)C(=O)N[C@@H](CCCNC(=N)N)C(=O)N[C@H](C(N)=O)[C@@H](C)CC)NC(=O)[C@H]([C@@H](C)CC)NC(=O)[C@H](C(C)C)NC(=O)[C@H](CC(C)C)NC1=O` [SP-55] (Ac-FIDEEVL[Nle][S5]LVI[S5][Nle]SLDRI-NH2; staple 9-13): the “18 h Avg % max inhibition at top conc” value is “++++ (≥50: ++++)” and the 50% effective concentration (EC50) fell in the range of 5 to 15 µM.
In the case of `CCCC[C@H](NC(=O)[C@H](CC(C)C)NC(=O)[C@@H](NC(=O)[C@H](CCC(=O)O)NC(=O)[C@H](CCC(=O)O)NC(=O)[C@H](CC(=O)O)NC(=O)[C@@H](NC(=O)[C@H](Cc1ccccc1)NC(C)=O)[C@@H](C)CC)C(C)C)C(=O)N[C@@]1(C)CCCC=CCCC[C@@](C)(C(=O)N[C@@H](CCCC)C(=O)N[C@@H](C)C(=O)N[C@@H](CC(C)C)C(=O)N[C@@H](CO)C(=O)N[C@@H](CCCNC(=N)N)C(=O)N[C@H](C(N)=O)[C@@H](C)CC)NC(=O)[C@H]([C@@H](C)CC)NC(=O)[C@H](C(C)C)NC(=O)[C@H](CC(C)C)NC1=O` [SP-57] (Ac-FIDEEVL[Nle][S5]LVI[S5][Nle]ALSRI-NH2; staple 9-13), the “18 h Avg % max inhibition at top conc” value is listed as “++++ (≥50: ++++)” and the 50% effective concentration (EC50) fell in the range of 5 to 15 µM.
For `CCCC[C@H](NC(=O)[C@H](CC(C)C)NC(=O)[C@@H](NC(=O)[C@H](CCC(=O)O)NC(=O)[C@H](CCC(=O)O)NC(=O)[C@H](CC(=O)O)NC(=O)[C@@H](NC(=O)[C@H](Cc1ccccc1)NC(C)=O)[C@@H](C)CC)C(C)C)C(=O)N[C@@]1(C)CCCC=CCCC[C@@](C)(C(=O)N[C@@H](CCCC)C(=O)N[C@@H](C)C(=O)N[C@@H](CC(C)C)C(=O)N[C@@H](CC(=O)O)C(=O)N[C@@H](CO)C(=O)N[C@H](C(N)=O)[C@@H](C)CC)NC(=O)[C@H]([C@@H](C)CC)NC(=O)[C@H](C(C)C)NC(=O)[C@H](CC(C)C)NC1=O` [SP-58] (Ac-FIDEEVL[Nle][S5]LVI[S5][Nle]ALDSI-NH2; staple 9-13), the “18 h Avg % max inhibition at top conc” value is recorded as “+++ (≤25 but <50: +++)” and the EC50 is more than 30 µM.
As for `CCCC[C@H](NC(=O)[C@H](CC(C)C)NC(=O)[C@@H](NC(=O)[C@H](CCC(=O)O)NC(=O)[C@H](CCC(=O)O)NC(=O)[C@H](CC(=O)O)NC(=O)[C@@H](NC(=O)[C@H](Cc1ccccc1)NC(C)=O)[C@@H](C)CC)C(C)C)C(=O)N[C@@]1(C)CCCC=CCCC[C@@](C)(C(=O)N[C@@H](CCCC)C(=O)N[C@@H](C)C(=O)N[C@@H](CC(C)C)C(=O)N[C@@H](CC(=O)O)C(=O)N[C@@H](CCCNC(=N)N)C(=O)N[C@@H](CO)C(N)=O)NC(=O)[C@H]([C@@H](C)CC)NC(=O)[C@H](C(C)C)NC(=O)[C@H](CC(C)C)NC1=O` [SP-59] (Ac-FIDEEVL[Nle][S5]LVI[S5][Nle]ALDRS-NH2; staple 9-13), the “18 h Avg % max inhibition at top conc” value is “+++ (≤25 but <50: +++)” and the EC50 is 15 to 30 µM.

The values above are taken from patent publication US20190225650A1, “PEPTIDOMIMETIC MACROCYCLES AND USE THEREOF IN REGULATING HIF1ALPHA” (AILERON THERAPEUTICS, INC., priority 2013, published 2019).
